In the test the target is T1, histamine H3 receptor (Homo sapiens, UniProt Q9Y5N1).
T1 construct: expressed in transfected cells; host or cells: CHO K1 cells (pSwitch/pGene GeneSwitch system, mifepristone-induced), clone 3H3; membranes
T1 sequence (Q9Y5N1 whole entry): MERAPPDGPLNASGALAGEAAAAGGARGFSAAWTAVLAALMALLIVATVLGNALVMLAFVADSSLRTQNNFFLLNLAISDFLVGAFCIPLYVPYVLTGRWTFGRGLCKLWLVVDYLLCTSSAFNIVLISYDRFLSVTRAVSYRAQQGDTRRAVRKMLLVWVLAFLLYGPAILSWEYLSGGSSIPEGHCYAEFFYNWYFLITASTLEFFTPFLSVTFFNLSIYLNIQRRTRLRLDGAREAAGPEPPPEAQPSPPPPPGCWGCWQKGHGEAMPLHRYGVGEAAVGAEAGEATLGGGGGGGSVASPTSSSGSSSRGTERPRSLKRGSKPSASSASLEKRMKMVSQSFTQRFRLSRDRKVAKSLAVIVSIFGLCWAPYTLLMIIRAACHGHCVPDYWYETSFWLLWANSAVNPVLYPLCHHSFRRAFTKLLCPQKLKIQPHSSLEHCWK
Briefly: Histamine H3 functional antagonist assay ([35S]-GTPγS SPA on membranes of H3 cells). The class given is biochemical. The note with it: membrane prepared from cultured H3 cells (CHO K1, human H3); histamine at EC80; averages of a number of experiments; read-out: functional pKi (fpKi), H3 functional antagonist assay (converted). An excerpt: A membrane preparation containing histamine H3 receptors may be prepared in accordance with the following procedures:
(i) Generation of Histamine H3 Cell Line
DNA encoding the human histamine H3 gene (Huvar, A. et al. (1999) Mol. Pharmacol. 55(6), 1101-1107) was cloned into a holding vector, pcDNA3.1 TOPO (InVitrogen) and its cDNA was isolated from this vector by restriction digestion of plasmid DNA with the enzymes BamH1 and Not-1 and ligated into the inducible expression vector pGene (InVitrogen) digested with the same enzymes. The GeneSwitch™ system (a system where in transgene expression is switched off in the absence of an inducer and switched on in the presence of an inducer) was performed as described in U.S. Pat. Nos. 5,364,791; 5,874,534; and 5,935,934. Ligated DNA was transformed into competent DH5α E. coli host bacterial cells and plated onto Luria Broth (LB) agar containing Zeocin™ (an antibiotic which allows the selection of cells expressing the sh ble gene which is present on pGene and pSwitch) at 50 μg ml^−1. Colonies containing the re-ligated plasmid were identified by restriction analysis. DNA for transfection into mammalian cells was prepared from 250 ml cultures of the host bacterium containing the pGeneH3 plasmid and isolated using a DNA preparation kit (Qiagen Midi-Prep) as per manufacturers guidelines (Qiagen). CHO K1 cells previously transfected with the pSwitch regulatory plasmid (InVitrogen) were seeded at 2×10e6 cells per T75 flask in Complete Medium, containing Hams F12 (GIBCOBRL, Life Technologies) medium supplemented with 10% v/v dialysed foetal bovine serum, L-glutamine, and hygromycin (100 μg ml^−1), 24 hours prior to use. Plasmid DNA was transfected into the cells using Lipofectamine plus according to the manufacturers guidelines (InVitrogen). 48 hours post transfection cells were placed into complete medium supplemented with 500 μg ml^−1 Zeocin™.
10-14 days post selection 10 nM Mifepristone (InVitrogen), was added to the culture medium to induce the expression of the receptor. 18 hours post induction cells were detached from the flask using ethylenediamine tetra-acetic acid (EDTA; 1:5000; InVitrogen), following several washes with phosphate buffered saline pH 7.4 and resuspended in Sorting Medium containing Minimum Essential Medium (MEM), without phenol red, and supplemented with Earles salts and 3% Foetal Clone II (Hyclone). Approximately 1×10e7 cells were examined for receptor expression by staining with a rabbit polyclonal antibody, 4a, raised against the N-terminal domain of the histamine H3 receptor, incubated on ice for 60 minutes, followed by two washes in sorting medium. Receptor bound antibody was detected by incubation of the cells for 60 minutes on ice with a goat anti rabbit antibody, conjugated with Alexa 488 fluorescence marker (Molecular Probes). Following two further washes with Sorting Medium, cells were filtered through a 50 μm Filcon™ (BD Biosciences) and then analysed on a FACS Vantage SE Flow Cytometer fitted with an Automatic Cell Deposition Unit. Control cells were non-induced cells treated in a similar manner. Positively stained cells were sorted as single cells into 96-well plates, containing Complete Medium containing 500 μg ml^−1 Zeocin™ and allowed to expand before reanalysis for receptor expression via antibody and ligand binding studies. One clone, 3H3, was selected for membrane preparation.
(ii) Membrane Preparation from Cultured Cells
All steps of the protocol are carried out at 4° C. and with pre-cooled reagents. The cell pellet is resuspended in 10 volumes of homogenisation buffer (50 mM N-2-hydroxyethylpiperazine-N′-2-ethanesulfonic acid (HEPES), 1 mM ethylenediamine tetra-acetic acid (EDTA), pH 7.4 with KOH, supplemented with 10e-6M leupeptin (acetyl-leucyl-leucyl-arginal; Sigma L2884), 25 μg/ml bacitracin (Sigma B0125), 1 mM phenylmethylsulfonyl fluoride (PMSF) and 2×10e-6M pepstain A (Sigma)). […]
(In general: GTPγS resists hydrolysis and so accumulates on activated G proteins.)
On to `CC(=O)Nc1cnc(Cc2ccc3c(c2)CCN(C2CCC2)CC3)cn1` [Example E32, N-{5-[(3-Cyclobutyl-2,3,4,5-tetrahydro-1H-3-benzazepin-7-yl)methyl]-2-pyrazinyl}acetamide], for which the Ki is below 3.16 nM.

On to `O=c1nc(-c2ccc(Cc3ccc4c(c3)CCN(C3CCC3)CC4)cc2)[nH]o1` [Example E58, 3-{4-[(3-cyclobutyl-2,3,4,5-tetrahydro-1H-3-benzazepin-7-yl)methyl]Phenyl}-1,2,4-oxadiazol-5(2H)-one], for which the Ki was below 3.16 nM.

In the case of `NC(=O)c1ccc(Cc2ccc3c(c2)CCN(C2CCC2)CC3)nc1` [Example E44, 6-[(3-cyclobutyl-2,3,4,5-tetrahydro-1H-3-benzazepin-7-yl)methyl]-3-pyridinecarboxamide], the Ki is below 3.16 nM.

For `N#CCNC(=O)c1cnc(Cc2ccc3c(c2)CCN(C2CCC2)CC3)cn1` [Example E24, N-(Cyanomethyl)-5-[(3-cyclobutyl-2,3,4,5-tetrahydro-1H-3-benzazepin-7-yl)methyl]-2-pyrazinecarboxamide], the Ki was below 3.16 nM.

Take `Cc1noc(-c2ccc(Cc3ccc4c(c3)CCN(C3CCC3)CC4)cc2)n1` [Example E13, 3-Cyclobutyl-7-{[4-(3-methyl-1,2,4-oxadiazol-5-yl)phenyl]methyl}-2,3,4,5-tetrahydro-1H-3-benzazepine]: the Ki was below 0.316 nM.

Regarding `N#Cc1ccc(Cc2ccc3c(c2)CCN(C2CCC2)CC3)cn1` [Example E12, 5-[(3-Cyclobutyl-2,3,4,5-tetrahydro-1H-3-benzazepin-7-yl)methyl]-2-pyridinecarbonitrile], the Ki is below 3.16 nM.

On to `O=C(c1ccc(Cc2ccc3c(c2)CCN(C2CCC2)CC3)cc1)N1CCCCC1` [Example E18, 3-Cyclobutyl-7-{[4-(1-piperidinylcarbonyl)phenyl]methyl}-2,3,4,5-tetrahydro-1H-3-benzazepine], for which the Ki is below 3.16 nM.

Regarding `O=C1CCCN1c1ccc(Cc2ccc3c(c2)CCN(C2CCCC2)CC3)cn1` [Example E37, 1-{5-[(3-cyclopentyl-2,3,4,5-tetrahydro-1H-3-benzazepin-7-yl)methyl]-2-pyridinyl}-2-pyrrolidinone], the Ki was below 3.16 nM.

Take `N#Cc1ccc(Cc2ccc3c(c2)CCN(C2CCC2)CC3)cc1` [Example E1, 4-[(3-Cyclobutyl-2,3,4,5-tetrahydro-1H-3-benzazepin-7-yl)methyl]benzonitrile]: the Ki was below 0.316 nM.

In the case of `CCNC(=O)c1cnc(Cc2ccc3c(c2)CCN(C2CCC2)CC3)cn1` [Example E34, 5-[(3-Cyclobutyl-2,3,4,5-tetrahydro-1H-3-benzazepin-7-yl)methyl]-N-ethyl-2-pyrazinecarboxamide], the Ki was below 3.16 nM.

As for `CNC(=O)c1ccc(Cc2ccc3c(c2)CCN(C2CCC2)CC3)nc1` [Example E42, 6-[(3-cyclobutyl-2,3,4,5-tetrahydro-1H-3-benzazepin-7-yl)methyl]-N-methyl-3-pyridinecarboxamide], the Ki was below 3.16 nM.

`CNC(=O)c1cnc(Cc2ccc3c(c2)CCN(C2CCC2)CC3)cn1` [Example E33, 5-[(3-Cyclobutyl-2,3,4,5-tetrahydro-1H-3-benzazepin-7-yl)methyl]-N-methyl-2-pyrazinecarboxamide]: the Ki is below 0.316 nM.

Turning to `CN1CCN(c2ccc(Cc3ccc4c(c3)CCN(C3CCC3)CC4)cn2)C1=O` [Example E40, 1-{5-[(3-Cyclobutyl-2,3,4,5-tetrahydro-1H-3-benzazepin-7-yl)methyl]-2-pyridinyl}-3-methyl-2-imidazolidinone], the Ki was below 3.16 nM.

In the case of `CC(C)NC(=O)c1ccc(Cc2ccc3c(c2)CCN(C2CCC2)CC3)cc1` [Example E51, 4-[(3-cyclobutyl-2,3,4,5-tetrahydro-1H-3-benzazepin-7-yl)methyl]-N-(1-methylethyl)benzamide], the Ki was below 3.16 nM.

Regarding `O=C1CCCN1c1ccc(Cc2ccc3c(c2)CCN(C2CCCC2)CC3)cc1` [Example E36, 1-{4-[(3-Cyclopentyl-2,3,4,5-tetrahydro-1H-3-benzazepin-7-yl)methyl]phenyl}-2-pyrrolidinone], the Ki was below 3.16 nM.

On to `O=C(c1ccc(Cc2ccc3c(c2)CCN(C2CCC2)CC3)cc1)N1CCOCC1` [Example E19, 3-Cyclobutyl-7-{[4-(4-morpholinylcarbonyl)phenyl]methyl}-2,3,4,5-tetrahydro-1H-3-benzazepine], for which the Ki was below 3.16 nM.

With `CC(C)NC(=O)c1cnc(Cc2ccc3c(c2)CCN(C2CCC2)CC3)cn1` [Example E21, 5-[(3-Cyclobutyl-2,3,4,5-tetrahydro-1H-3-benzazepin-7-yl)methyl]-N-(1-methylethyl)-2-pyrazinecarboxamide], the Ki was below 3.16 nM.

As for `Cc1noc(-c2ccc(Cc3ccc4c(c3)CCN(C3CCC3)CC4)cn2)n1` [Example E14, 3-Cyclobutyl-7-{[6-(3-methyl-1,2,4-oxadiazol-5-yl)-3-pyridinyl]methyl}-2,3,4,5-tetrahydro-1H-3-benzazepine], the Ki is below 3.16 nM.

In the case of `O=C(c1ccc(Cc2ccc3c(c2)CCN(C2CCC2)CC3)cc1)N1CCCC1` [Example E49, 3-cyclobutyl-7-{[4-(1-pyrrolidinylcarbonyl)phenyl]methyl}-2,3,4,5-tetrahydro-1H-3-benzazepine], the Ki was below 3.16 nM.

`Cc1noc(-c2ccc(Cc3ccc4c(c3)CCN(C3CCC3)CC4)nc2)n1` [Example E16, 3-Cyclobutyl-7-{[5-(3-methyl-1,2,4-oxadiazol-5-yl)-2-pyridinyl]methyl}-2,3,4,5-tetrahydro-1H-3-benzazepine]: the Ki is below 3.16 nM.

As for `CNC(=O)c1ccc(Cc2ccc3c(c2)CCN(C2CCC2)CC3)cn1` [Example E26, 5-[(3-Cyclobutyl-2,3,4,5-tetrahydro-1H-3-benzazepin-7-yl)methyl]-N-methyl-2-pyridinecarboxamide], the Ki was below 3.16 nM.

On to `O=C(NC1CCOCC1)c1ccc(Cc2ccc3c(c2)CCN(C2CCC2)CC3)cn1` [Example E55, 5-[(3-cyclobutyl-2,3,4,5-tetrahydro-1H-3-benzazepin-7-yl)methyl]-N-(tetrahydro-2H-pyran-4-yl)-2-pyridinecarboxamide], for which the Ki was below 3.16 nM.

With `CCNC(=O)c1ccc(Cc2ccc3c(c2)CCN(C2CCC2)CC3)cc1` [Example E48, 4-[(3-cyclobutyl-2,3,4,5-tetrahydro-1H-3-benzazepin-7-yl)methyl]-N-ethylbenzamide], the Ki is below 3.16 nM.

As to `O=C(c1cnc(Cc2ccc3c(c2)CCN(C2CCC2)CC3)cn1)N1CCCC1` [Example E20, 3-Cyclobutyl-7-{[5-(1-pyrrolidinylcarbonyl)-2-pyrazinyl]methyl}-2,3,4,5-tetrahydro-1H-3-benzazepine], the Ki is below 3.16 nM.

Consider `O=C1CCCN1c1cnc(Cc2ccc3c(c2)CCN(C2CCC2)CC3)cn1` [Example E31, 1-{5-[(3-Cyclobutyl-2,3,4,5-tetrahydro-1H-3-benzazepin-7-yl)methyl]-2-pyrazinyl}-2-pyrrolidinone], for which the Ki was below 0.316 nM.

Take `O=C(NCC(F)(F)F)c1cnc(Cc2ccc3c(c2)CCN(C2CCC2)CC3)cn1` [Example E23, 5-[(3-Cyclobutyl-2,3,4,5-tetrahydro-1H-3-benzazepin-7-yl)methyl]-N-(2,2,2-trifluoroethyl)-2-pyrazinecarboxamide]: the Ki is below 3.16 nM.

On to `O=C1OCCN1c1ccc(Cc2ccc3c(c2)CCN(C2CCC2)CC3)cn1` [Example E39, 3-{5-[(3-Cyclobutyl-2,3,4,5-tetrahydro-1H-3-benzazepin-7-yl)methyl]-2-pyridinyl}-1,3-oxazolidin-2-one], for which the Ki was below 3.16 nM.

The values above are taken from patent publication US20070208005A1, “TETRAHYDROBENZAZEPINES AS ANTAGONISTS AND/OR REVERSE AGONISTS OF THE HISTAMINE H3 RECEPTOR” (priority 2004, published 2007).
